“And” between values parts separate entries of the source, which are not always exact repeats. Equal entries are not always repeated.
Legend:
BaF3/TEL-AXL cells = assay: BaF3/TEL-AXL cell viability; type: cell-based; conditions: 48 h, read-out: IC50 Cell viability
AXL kinase = target: T1, AXL kinase (Homo sapiens, UniProt P30530); assay: AXL kinase inhibition, ELISA; type: biochemical; conditions: for IC50: IC50 AXL kinase, ELISA, mean ± SD of two independent experiments; for inhibition at 0.1 µM: read-out: inhibition rate AXL kinase
T1 sequence (P30530 26-894): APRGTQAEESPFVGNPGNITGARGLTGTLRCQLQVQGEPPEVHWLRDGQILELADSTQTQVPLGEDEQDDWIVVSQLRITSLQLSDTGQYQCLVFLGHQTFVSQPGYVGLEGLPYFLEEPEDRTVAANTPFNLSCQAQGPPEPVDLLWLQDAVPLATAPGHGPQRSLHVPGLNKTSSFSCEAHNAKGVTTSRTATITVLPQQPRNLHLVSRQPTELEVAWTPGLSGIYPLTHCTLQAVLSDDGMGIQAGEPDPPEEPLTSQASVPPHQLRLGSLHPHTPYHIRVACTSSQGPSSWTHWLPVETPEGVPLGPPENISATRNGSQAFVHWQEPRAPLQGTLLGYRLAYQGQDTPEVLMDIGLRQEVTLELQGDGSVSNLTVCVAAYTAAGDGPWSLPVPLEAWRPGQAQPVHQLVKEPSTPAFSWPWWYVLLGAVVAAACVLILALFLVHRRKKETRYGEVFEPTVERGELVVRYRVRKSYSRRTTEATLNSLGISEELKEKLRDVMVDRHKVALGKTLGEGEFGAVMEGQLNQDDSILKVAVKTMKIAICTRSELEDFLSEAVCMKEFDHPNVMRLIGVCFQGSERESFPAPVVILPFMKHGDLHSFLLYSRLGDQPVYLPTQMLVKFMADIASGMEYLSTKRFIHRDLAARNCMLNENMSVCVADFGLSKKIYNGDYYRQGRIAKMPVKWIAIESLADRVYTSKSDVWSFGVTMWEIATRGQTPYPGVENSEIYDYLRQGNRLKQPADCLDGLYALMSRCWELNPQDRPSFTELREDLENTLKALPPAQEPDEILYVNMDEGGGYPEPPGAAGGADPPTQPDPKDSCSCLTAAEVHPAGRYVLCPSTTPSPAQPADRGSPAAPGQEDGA

[1] = Pharmacokinetics in ICR mice; type: in vivo; conditions: mouse, serum

| Compound | IC50 (BaF3/TEL-AXL cells) [nM] | IC50 (AXL kinase) | inhibition at 0.1 µM (AXL kinase) [%] | further results |
| --- | --- | --- | --- | --- |
| COc1cc2ncnc(Oc3ccc(NC(=O)c4c5n(n(-c6ccccc6F)c4=O)CCCC5)cc3F)c2cc1OC [Compound 17] | < 0.1 |  |  |  |
| COc1cc2ncnc(Oc3ccc(NC(=O)c4c5n(n(-c6ccccc6F)c4=O)CCCC5)cc3Cl)c2cc1OC [Compound 34] |  | 30.9 ± 1.4 nM |  |  |
| COc1cc2ncnc(Oc3ccc(NC(=O)c4c5n(n(-c6ccccc6)c4=O)CCCC5)c(F)c3)c2cc1OC [Compound 29] | 2.3 ± 0.4 | 10 ± 1.4 nM |  |  |
| COc1cc2ncnc(Oc3ccc(NC(=O)c4c5n(n(-c6ccccc6)c4=O)CCCC5)nc3)c2cc1OC [Compound 51] | 3.3 ± 1.4 | 16.8 ± 3.5 nM |  |  |
| COc1cc2nccc(Oc3ccc(NC(=O)c4c5n(n(-c6cc(F)ccc6Cl)c4=O)CCCC5)cc3)c2cc1OC [Compound 61] | < 0.2 | < 10 nM and 0.7 nM |  |  |
| O=C(Nc1ccc(Oc2ccc3nncn3n2)cc1)c1c2n(n(-c3ccccc3)c1=O)CCCC2 [Compound 12] |  |  | -17.7 |  |
| COc1cc2nccc(Oc3ccc(NC(=O)c4c5n(n(-c6ccccc6)c4=O)CCCC5)cn3)c2cc1OC [Compound 58] |  |  | 50.9 |  |
| COc1cc2ncnc(Oc3ccc(NC(=O)c4c5n(n(-c6ccccc6F)c4=O)CCCC5)c4ccccc34)c2cc1OC [Compound 53] |  |  | 41.4 |  |
| COc1cc2ncnc(Oc3ccc(NC(=O)c4c5n(n(-c6ccccc6)c4=O)CCCC5)cc3Cl)c2cc1OC [Compound 33] | 1650 ± 444 | 16.9 ± 2.5 nM |  |  |
| COc1cc2nccc(Oc3ccc(NC(=O)c4c5n(n(-c6ccc(F)cc6Cl)c4=O)CCCC5)cc3)c2cc1OC [Compound 63] | < 0.2 | < 10 nM and 2.3 nM |  |  |
| COc1cc2ncnc(Oc3ccc(NC(=O)c4c5n(n(-c6cc(F)ccc6F)c4=O)CCCC5)cc3F)c2cc1OC [Compound 24] | < 0.1 |  |  | AUC(0-inf) ([1]; iv, 5 mg/kg): 49100 ng·h/mL; AUC(0-t) ([1]; iv, 5 mg/kg): 48900 ng·h/mL; clearance ([1]; iv, 5 mg/kg): 1.7 mL/min/kg; half-life ([1]; iv, 5 mg/kg): 3.38 h; AUC(0-inf) ([1]; po, 10 mg/kg): 14200 ng·h/mL; AUC(0-t) ([1]; po, 10 mg/kg): 13500 ng·h/mL; Cmax ([1]; po, 10 mg/kg): 1490 ng/mL; Tmax ([1]; po, 10 mg/kg): 2 h; bioavailability ([1]; po, 10 mg/kg): 13.8%; half-life ([1]; po, 10 mg/kg): 6.77 h |
| COc1cc2ncnc(Oc3ccc(NC(=O)c4c5n(n(-c6cc(F)ccc6F)c4=O)CCCC5)cc3)c2cc1OC [Compound 50] | 7.8 ± 0.7 |  |  |  |
| COc1cc2ncnc(Oc3ccc(NC(=O)c4c5n(n(-c6cc(F)ccc6F)c4=O)CCCC5)cc3Cl)c2cc1OC [Compound 36] | 3630 ± 494 | 6.6 ± 2.9 nM |  |  |
| COc1cc2ncnc(Oc3ccc(NC(=O)c4c5n(n(-c6ccccc6)c4=O)CCCC5)cc3C(F)(F)F)c2cc1OC [Compound 45] |  |  | 59.4 |  |
| COc1cc2nccc(Oc3ccc(NC(=O)c4c5n(n(-c6cc(F)ccc6F)c4=O)CCCC5)cc3)c2cc1OC [Compound 60] | < 0.2 | < 10 nM and 1.2 nM |  |  |
| COc1cc2ncnc(Oc3ccc(NC(=O)c4c5n(n(-c6ccccc6Cl)c4=O)CCCC5)cc3F)c2cc1OC [Compound 20] | 7 ± 4.2 | 10.5 ± 0.5 nM |  |  |
| COc1cc2ncnc(Oc3ccc(NC(=O)c4c5n(n(-c6ccccc6F)c4=O)CCCC5)cc3)c2cc1OC [Compound 49] |  |  | 47.9 |  |
| COc1cc2ncnc(Oc3ccc(NC(=O)c4c5n(n(-c6ccccc6)c4=O)CCCC5)c4ccccc34)c2cc1OC [Compound 52] |  |  | 41 |  |
| COc1cc2nccc(Oc3ccc(NC(=O)c4c5n(n(-c6ccc(F)cc6F)c4=O)CCCC5)cc3)c2cc1OC [Compound 62] | 0.7 ± 0.3 | < 10 nM and 6.1 nM |  |  |
| COc1cc2nccc(Oc3ccc(NC(=O)c4c5n(n(-c6ccccc6)c4=O)CCCC5)cc3)c2cc1OC [Compound 56] | 1 ± 0.2 | 4 ± 0.4 nM |  |  |
| COc1cc2nccc(Oc3ccc(NC(=O)c4c5n(n(-c6ccccc6)c4=O)CCCC5)cc3F)c2cc1OC [Compound 57] | < 0.1 |  |  |  |
| COc1cc2ncnc(Oc3ccc(NC(=O)c4c5n(n(-c6ccccc6F)c4=O)CCCC5)c(F)c3)c2cc1OC [Compound 30] | < 0.1 | 13.4 ± 0.8 nM |  |  |
| O=C(Nc1ccc(Oc2ccn3nccc3n2)cc1)c1c2n(n(-c3ccccc3)c1=O)CCCC2 [Compound 13] |  |  | -18.9 |  |
| COc1cc2ncnc(Oc3ccc(NC(=O)c4c5n(n(-c6cc(C)ccc6C)c4=O)CCCC5)cc3F)c2cc1OC [Compound 25] |  | 78.4 ± 2.1 nM |  |  |
| COc1cc2ncnc(Oc3ccc(NC(=O)c4c5n(n(-c6cc(F)ccc6F)c4=O)CCCC5)c(F)c3)c2cc1OC [Compound 32] |  | 37 ± 1.4 nM |  |  |
| COc1nc(OC)nc(Oc2ccc(NC(=O)c3c4n(n(-c5ccccc5)c3=O)CCCC4)cc2)n1 [Compound 14] |  |  | -6 |  |
| COc1cc2ncnc(Oc3ccc(NC(=O)c4c5n(n(-c6ccc(F)cc6F)c4=O)CCCC5)cc3F)c2cc1OC [Compound 27] |  | 25.1 ± 1.6 nM |  |  |
| COc1cc2ncnc(Oc3ccc(NC(=O)c4c5n(n(-c6cc(F)ccc6F)c4=O)CCCC5)c4ccccc34)c2cc1OC [Compound 55] |  |  | 50.4 |  |

The next lines start with results.

| IC50 (BaF3/TEL-AXL cells) [nM] | IC50 (AXL kinase) | inhibition at 0.1 µM (AXL kinase) [%] | Compound | further results |
| --- | --- | --- | --- | --- |
|  | 19.6 ± 1.9 nM |  | COc1cc2ncnc(Oc3ccc(NC(=O)c4c5n(n(-c6ccc(F)cc6)c4=O)CCCC5)cc3Cl)c2cc1OC [Compound 35] |  |
|  |  | 35.7 | COc1cc2ncnc(Oc3ccc(NC(=O)c4c5n(n(-c6cc(F)ccc6F)c4=O)CCCC5)cc3C)c2cc1OC [Compound 40] |  |
|  |  | 56.4 | COc1cc2ncnc(Oc3ccc(NC(=O)c4c5n(n(-c6ccccc6)c4=O)CCCC5)cc3OC)c2cc1OC [Compound 41] |  |
|  | 42.6 ± 6.2 nM |  | COc1cc2ncnc(Oc3ccc(NC(=O)c4c5n(n(-c6ccc(Cl)cc6)c4=O)CCCC5)cc3F)c2cc1OC [Compound 21] |  |
| < 0.1 |  |  | COc1cc2ncnc(Oc3ccc(NC(=O)c4c5n(n(-c6ccccc6)c4=O)CCCC5)cc3F)c2cc1OC [Compound 16] |  |
|  |  | 19.9 | COc1cc2ncnc(Oc3ccc(NC(=O)c4c5n(n(-c6ccc(F)cc6)c4=O)CCCC5)cc3OC)c2cc1OC [Compound 43] |  |
|  | 27.3 ± 2.6 nM |  | COc1cc2ncnc(Oc3ccc(NC(=O)c4c5n(n(-c6ccc(C)cc6)c4=O)CCCC5)cc3F)c2cc1OC [Compound 23] |  |
|  | 30.5 ± 4.9 nM |  | COc1cc2ncnc(Oc3ccc(NC(=O)c4c5n(n(-c6ccc(F)cc6)c4=O)CCCC5)c(F)c3)c2cc1OC [Compound 31] |  |
|  |  | 32.3 | COc1cc2ncnc(Oc3ccc(NC(=O)c4c5n(n(-c6ccccc6F)c4=O)CCCC5)cc3C)c2cc1OC [Compound 38] |  |
| < 0.1 |  |  | COc1cc2ncnc(Oc3ccc(NC(=O)c4c5n(n(-c6ccc(F)cc6)c4=O)CCCC5)cc3F)c2cc1OC [Compound 19] |  |
| 7.6 ± 4.1 | 15.7 ± 1.7 nM |  | COc1cc2ncnc(Oc3ccc(NC(=O)c4c5n(n(-c6ccccc6C)c4=O)CCCC5)cc3F)c2cc1OC [Compound 22] |  |
|  |  | 39 | COc1cc2ncnc(Oc3ccc(NC(=O)c4c5n(n(-c6ccc(F)cc6)c4=O)CCCC5)c4ccccc34)c2cc1OC [Compound 54] |  |
|  |  | 15.6 | COc1cc2ncnc(Oc3ccc(NC(=O)c4c5n(n(-c6ccc(F)cc6)c4=O)CCCC5)cc3C)c2cc1OC [Compound 39] |  |
|  |  | 28 | COc1cc2ncnc(Oc3ccc(NC(=O)c4c5n(n(-c6ccccc6F)c4=O)CCCC5)cc3OC)c2cc1OC [Compound 42] |  |
|  |  | 23.2 | COc1cc2ncnc(Oc3ccc(NC(=O)c4c5n(n(-c6ccccc6)c4=O)CCCC5)cc3C)c2cc1OC [Compound 37] |  |

Source: publication PMC10692477 (Acta Pharmaceutica Sinica. B, 2023)
